Laboratory results reported in BigSolDB 2.1.

Conditions: in water

O=S(=O)([O-])c1ccc(Nc2nc(Nc3ccc(/C=C/c4ccc(Nc5nc(Nc6ccc(S(=O)(=O)[O-])cc6)nc(N6CCOCC6)n5)cc4S(=O)(=O)[O-])c(S(=O)(=O)[O-])c3)nc(N3CCOCC3)n2)cc1.[Na+].[Na+].[Na+].[Na+]
Conditions	solubility (mole fraction)
273.15 K	0.00029
278.45 K	0.000399
283.35 K	0.000545
288.75 K	0.000757
293.25 K	0.00099
298.75 K	0.00137
303.15 K	0.00179
307.55 K	0.00219
310.75 K	0.00264
313.95 K	0.00319
